Measurements from patent US9480259B2, “Pyrazolopyrans having herbicidal and pharmaceutical properties” (BASF SE, priority 2012, dated 2016).

Target: Arabidopsis thaliana SHMT
Assay: SHMT activity assay (ED50 SHMT), coupled with N5,N10-CH2-THF dehydrogenase, NADH at 340 nm
Format: biochemical
Settings: Table 2; values given as upper bounds
Outline: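 His-tagged SHMT purified on Ni-NTA. NADH formation followed at 340 nm for 30 min; ED50 from inhibition of initial velocity.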

| SMILES | EC50 [nM] |
| --- | --- |
| Cc1n[nH]c2c1C(c1cc(Cl)cc(CCC(=O)O)c1)(C1(F)CC1)C(C#N)=C(N)O2 (stereo not drawn) [Compound 2.497] | < 100 |
| Cc1n[nH]c2c1C(c1cc(Cl)cc(CC(=O)O)c1)(C1(F)CC1)C(C#N)=C(N)O2 (stereo not drawn) [Compound 2.498] | < 100 |
| Cc1n[nH]c2c1C(c1cc(Cl)cc(CC(=O)O)c1)(C1CCC1)C(C#N)=C(N)O2 (stereo not drawn) [Compound 2.499] | < 10 |
| Cc1n[nH]c2c1C(c1cc(Cl)cc(CCC(=O)O)c1)(C1CCC1)C(C#N)=C(N)O2 (stereo not drawn) [Compound 2.500] | < 10 |
| Cc1n[nH]c2c1C(c1cc(Cl)cc(C(F)(F)F)c1)(C1(F)COC1)C(C#N)=C(N)O2 (stereo not drawn) [Compound 2.502] | < 10 |
| Cc1n[nH]c2c1C(c1cc(Br)cc(OCC(=O)O)c1)(C1(F)CC1)C(C#N)=C(N)O2 (stereo not drawn) [Compound 2.503] | < 10000 |
| Cc1n[nH]c2c1C(c1cc(Cl)c(OCC(=O)O)c(Cl)c1)(C1CCC1)C(C#N)=C(N)O2 (stereo not drawn) [Compound 2.504] | < 1000 |
| Cc1n[nH]c2c1C(c1cc(Br)cc(OCC(=O)O)c1)(C1CCC1)C(C#N)=C(N)O2 (stereo not drawn) [Compound 2.507] | < 10000 |
| Cc1n[nH]c2c1C(c1cc(O)cc(Cl)c1)(C1CCC1)C(C#N)=C(N)O2 (stereo not drawn) [Compound 2.508] | < 10000 |
| Cc1n[nH]c2c1C(c1cc(C#N)cc(-c3cccc(C(=O)O)c3)c1)(C1(F)CC1)C(C#N)=C(N)O2 (stereo not drawn) [Compound 2.510] | < 10 |
| Cc1n[nH]c2c1C(c1cc(C#N)cc(-c3cccc(C(=O)O)c3)c1)(C1(F)CC1)C(C#N)=C(N)O2 (stereo not drawn) [Compound 2.511] | < 10 |
| Cc1n[nH]c2c1C(c1cc(Cl)cc(-c3cccc(C#N)c3)c1)(C1CCC1)C(C#N)=C(N)O2 (stereo not drawn) [Compound 2.512] | < 10 |
| Cc1n[nH]c2c1C(c1cc(Cl)cc(-c3cccc(-c4nnn[nH]4)c3)c1)(C1CCC1)C(C#N)=C(N)O2 (stereo not drawn) [Compound 2.515] | < 10 |
| Cc1n[nH]c2c1C(c1cc(C#N)cc(-c3ccc(C(=O)O)cc3)c1)(C(C)C)C(C#N)=C(N)O2 (stereo not drawn) [Compound 2.519] | < 10 |
| CCc1n[nH]c2c1C(c1cc(C#N)cc(C#N)c1)(C(C)C)C(C#N)=C(N)O2 (stereo not drawn) [Compound 2.520] | < 10 |
| CCC1(c2cc(Cl)cc(C#N)c2)C(C#N)=C(N)Oc2[nH]nc(C)c21 (stereo not drawn) [Compound 2.529] | < 10 |
| CCCC1(c2cc(C#N)cc(C(F)(F)F)c2)C(C#N)=C(N)Oc2[nH]nc(C)c21 (stereo not drawn) [Compound 2.531] | < 10 |
| CCC1(c2cc(Br)cc(C#N)c2)C(C#N)=C(N)Oc2[nH]nc(C)c21 (stereo not drawn) [Compound 2.532] | < 10 |
| CCCC1(c2cc(Cl)cc(C#N)c2)C(C#N)=C(N)Oc2[nH]nc(C)c21 (stereo not drawn) [Compound 2.533] | < 10 |
| CCCC1(c2cc(Br)cc(C#N)c2)C(C#N)=C(N)Oc2[nH]nc(C)c21 (stereo not drawn) [Compound 2.534] | < 10 |
| CCCC1(c2cc(C#N)cc(C#N)c2)C(C#N)=C(N)Oc2[nH]nc(C)c21 (stereo not drawn) [Compound 2.535] | < 10 |
| CCOC(=O)COc1ccc(-c2cc(C#N)cc(C3(C4CCC4)C(C#N)=C(N)Oc4[nH]nc(C)c43)c2)cc1 (stereo not drawn) [Compound 2.536] | < 10 |
| Cc1n[nH]c2c1C(c1cc(C#N)cc(-c3ccc(OCC(=O)O)cc3)c1)(C1CCC1)C(C#N)=C(N)O2 (stereo not drawn) [Compound 2.538] | < 10 |

| SMILES | EC50 [nM] |
| --- | --- |
| Cc1n[nH]c2c1C(c1cc(Cl)cc(CCc3nnn[nH]3)c1)(C1CCC1)C(C#N)=C(N)O2 (stereo not drawn) [Compound 2.539] | < 10 |
| Cc1n[nH]c2c1C(c1ccc(CCC(=O)O)c(Cl)c1)(C1CCC1)C(C#N)=C(N)O2 (stereo not drawn) [Compound 2.542] | < 100 |
| Cc1n[nH]c2c1C(c1ccc(CCC(=O)O)c(C(F)(F)F)c1)(C1CCC1)C(C#N)=C(N)O2 (stereo not drawn) [Compound 2.543] | < 100 |
| Cc1n[nH]c2c1C(c1ccc(CC(=O)O)c(C(F)(F)F)c1)(C1CCC1)C(C#N)=C(N)O2 (stereo not drawn) [Compound 2.544] | < 100 |
| Cc1n[nH]c2c1C(c1cc(C#N)cc(-c3cc(F)cc(C(=O)O)c3)c1)(C1CCC1)C(C#N)=C(N)O2 (stereo not drawn) [Compound 2.545] | < 10 |
| COc1ccc(-c2cc(C#N)cc(C3(C4CCC4)C(C#N)=C(N)Oc4[nH]nc(C)c43)c2)cc1C(F)(F)F (stereo not drawn) [Compound 2.547] | < 10 |
| COC(=O)c1cc(-c2cc(C#N)cc(C3(C4CCC4)C(C#N)=C(N)Oc4[nH]nc(C)c43)c2)cc(C(F)(F)F)c1 (stereo not drawn) [Compound 2.552] | < 100 |
| CC(=O)N(C)c1cc(C#N)cc(C2(C(C)C)C(C#N)=C(N)Oc3[nH]nc(C)c32)c1 (stereo not drawn) [Compound 2.553] | < 10 |
| Cc1n[nH]c2c1C(c1cc(Cl)cc(CCC#N)c1)(C1CCC1)C(C#N)=C(N)O2 (stereo not drawn) [Compound 2.555] | < 10 |
| Cc1n[nH]c2c1C(c1cc(Cl)cc(-c3ccc(Cl)c(C(=O)O)c3)c1)(C1CCC1)C(C#N)=C(N)O2 (stereo not drawn) [Compound 2.557] | < 10 |
| Cc1n[nH]c2c1C(c1cc(C#N)cc(-c3cc(Cl)cc(C(=O)O)c3)c1)(C1CCC1)C(C#N)=C(N)O2 (stereo not drawn) [Compound 2.559] | < 100 |
| Cc1n[nH]c2c1C(c1cc(C#N)cc(-c3cc(C(=O)O)cc(C(=O)O)c3)c1)(C1CCC1)C(C#N)=C(N)O2 (stereo not drawn) [Compound 2.564] | < 1000 |
| Cc1n[nH]c2c1C(c1cc(C#N)cc(-c3cc(C(=O)O)cc([N+](=O)[O-])c3)c1)(C1CCC1)C(C#N)=C(N)O2 (stereo not drawn) [Compound 2.566] | < 10 |
| Cc1n[nH]c2c1C(c1cc(Cl)c(O)c(C#N)c1)(C1CCC1)C(C#N)=C(N)O2 (stereo not drawn) [Compound 2.567] | < 100 |
| Cc1n[nH]c2c1C(c1cc(Cl)cc(CC#N)c1)(C1CCC1)C(C#N)=C(N)O2 (stereo not drawn) [Compound 2.568] | < 10 |
| Cc1n[nH]c2c1C(c1cc(Cl)cc(Cc3nnn[nH]3)c1)(C1CCC1)C(C#N)=C(N)O2 (stereo not drawn) [Compound 2.570] | < 10 |
| CCc1n[nH]c2c1C(CC)(c1cc(Cl)cc(C#N)c1)C(C#N)=C(N)O2 (stereo not drawn) [Compound 2.573] | < 100 |
| CCc1n[nH]c2c1C(CC)(c1cc(C#N)cc(C(F)(F)F)c1)C(C#N)=C(N)O2 (stereo not drawn) [Compound 2.574] | < 10 |
| CCCC1(c2cc(C#N)cc(C(F)(F)F)c2)C(C#N)=C(N)Oc2[nH]nc(CC)c21 (stereo not drawn) [Compound 2.575] | < 10 |
| CCc1n[nH]c2c1C(CC)(c1cc(Br)cc(C#N)c1)C(C#N)=C(N)O2 (stereo not drawn) [Compound 2.576] | < 100 |
| CCCC1(c2cc(Cl)cc(C#N)c2)C(C#N)=C(N)Oc2[nH]nc(CC)c21 (stereo not drawn) [Compound 2.577] | < 100 |
| CCCC1(c2cc(Br)cc(C#N)c2)C(C#N)=C(N)Oc2[nH]nc(CC)c21 (stereo not drawn) [Compound 2.578] | < 100 |
| CCCC1(c2cc(C#N)cc(C#N)c2)C(C#N)=C(N)Oc2[nH]nc(CC)c21 (stereo not drawn) [Compound 2.579] | < 100 |

The remaining lines, values ahead:

| EC50 [nM] | SMILES |
| --- | --- |
| < 10 | COC(=O)c1cc(-c2cc(C#N)cc(C3(C4CCC4)C(C#N)=C(N)Oc4[nH]nc(C)c43)c2)ccc1Cl (stereo not drawn) [Compound 2.509] |
| < 10 | COC(=O)c1cc(F)cc(-c2cc(C#N)cc(C3(C4CCC4)C(C#N)=C(N)Oc4[nH]nc(C)c43)c2)c1 (stereo not drawn) [Compound 2.513] |
| < 10 | COC(=O)c1cc(Cl)cc(-c2cc(C#N)cc(C3(C4CCC4)C(C#N)=C(N)Oc4[nH]nc(C)c43)c2)c1 (stereo not drawn) [Compound 2.517] |
| < 10 | COC(=O)c1ccc(-c2cc(C#N)cc(C3(C4CCC4)C(C#N)=C(N)Oc4[nH]nc(C)c43)c2)cc1OC (stereo not drawn) [Compound 2.522] |
| < 10 | COC(=O)CCc1cccc(-c2cc(C#N)cc(C3(C4CCC4)C(C#N)=C(N)Oc4[nH]nc(C)c43)c2)c1 (stereo not drawn) [Compound 2.523] |
| < 10 | COC(=O)Cc1cccc(-c2cc(C#N)cc(C3(C4CCC4)C(C#N)=C(N)Oc4[nH]nc(C)c43)c2)c1 (stereo not drawn) [Compound 2.524] |
| < 10 | COC(=O)CCc1cccc(-c2cc(C#N)cc(C3(C4CCC4)C(C#N)=C(N)Oc4[nH]nc(C)c43)c2)c1 (stereo not drawn) [Compound 2.525] |
| < 10 | COC(=O)Cc1ccc(-c2cc(C#N)cc(C3(C4CCC4)C(C#N)=C(N)Oc4[nH]nc(C)c43)c2)cc1 (stereo not drawn) [Compound 2.526] |
| < 100 | COC(=O)c1ccc(-c2cc(C#N)cc(C3(C4CCC4)C(C#N)=C(N)Oc4[nH]nc(C)c43)c2)cc1Cl (stereo not drawn) [Compound 2.546] |
| < 10 | COC(=O)c1cc(OC)cc(-c2cc(C#N)cc(C3(C4CCC4)C(C#N)=C(N)Oc4[nH]nc(C)c43)c2)c1 (stereo not drawn) [Compound 2.548] |
| < 100 | COC(=O)c1cc(C(=O)OC)cc(-c2cc(C#N)cc(C3(C4CCC4)C(C#N)=C(N)Oc4[nH]nc(C)c43)c2)c1 (stereo not drawn) [Compound 2.549] |
| < 10 | COC(=O)c1ccc(-c2cc(C#N)cc(C3(C4CCC4)C(C#N)=C(N)Oc4[nH]nc(C)c43)c2)cc1C(=O)OC (stereo not drawn) [Compound 2.550] |
| < 100 | COC(=O)c1cc(OC(F)(F)F)cc(-c2cc(C#N)cc(C3(C4CCC4)C(C#N)=C(N)Oc4[nH]nc(C)c43)c2)c1 (stereo not drawn) [Compound 2.551] |
| < 10 | COC(=O)c1cc(-c2cc(C#N)cc(C3(C4CCC4)C(C#N)=C(N)Oc4[nH]nc(C)c43)c2)cc([N+](=O)[O-])c1 (stereo not drawn) [Compound 2.554] |
| < 10 | Cc1n[nH]c2c1C(c1cc(C#N)cc(-c3ccc(Cl)c(C(=O)O)c3)c1)(C1CCC1)C(C#N)=C(N)O2 (stereo not drawn) [Compound 2.556] |
| < 10 | Cc1n[nH]c2c1C(c1cc(C#N)cc(-c3ccc(F)c(C(=O)O)c3)c1)(C1CCC1)C(C#N)=C(N)O2 (stereo not drawn) [Compound 2.558] |
| < 10 | Cc1n[nH]c2c1C(c1cc(C#N)cc(-c3ccc(C(=O)O)c(F)c3)c1)(C1CCC1)C(C#N)=C(N)O2 (stereo not drawn) [Compound 2.560] |
| < 10 | COc1cc(-c2cc(C#N)cc(C3(C4CCC4)C(C#N)=C(N)Oc4[nH]nc(C)c43)c2)ccc1C(=O)O (stereo not drawn) [Compound 2.561] |
| < 10 | Cc1n[nH]c2c1C(c1cc(C#N)cc(-c3ccc(C(=O)O)c(Cl)c3)c1)(C1CCC1)C(C#N)=C(N)O2 (stereo not drawn) [Compound 2.562] |
| < 10 | COc1cc(C(=O)O)cc(-c2cc(C#N)cc(C3(C4CCC4)C(C#N)=C(N)Oc4[nH]nc(C)c43)c2)c1 (stereo not drawn) [Compound 2.563] |
| < 10 | Cc1n[nH]c2c1C(c1cc(C#N)cc(-c3ccc(C(=O)O)c(C(=O)O)c3)c1)(C1CCC1)C(C#N)=C(N)O2 (stereo not drawn) [Compound 2.565] |
| < 100 | COC(=O)c1cc(C(=O)O)cc(-c2cc(C#N)cc(C3(C4CCC4)C(C#N)=C(N)Oc4[nH]nc(C)c43)c2)c1 (stereo not drawn) [Compound 2.571] |
| < 100 | COC(=O)c1cc(-c2cc(C#N)cc(C3(C4CCC4)C(C#N)=C(N)Oc4[nH]nc(C)c43)c2)ccc1C(=O)O (stereo not drawn) [Compound 2.572] |
